# Results reported in patent US7802989B2, “Ozone tray” (CurOzone Ireland Ltd., priority 2000, dated 2010).
# Tested on: white spots
# Test: Ozone applied through tray over teeth and gums with in situ orthodontic bands; teeth examined for white spots
# Type: in vivo
# Settings: ozone introduced for up to 2 minutes
# Text: The method includes disposing the resilient elastomeric tray over the teeth 124 and orthodontic bands 160 applied thereto.
# Ozone introduced into the cavity 136 via the port 150 is provided for a period of time to treat the white spots and sterilize the orthodontic bands 160.
# Thereafter, the ozone is evacuated from the cavity 136 via the nozzle 128 and the tray 120 is removed from the arched upper or lower teeth 124.
# The tray is disposed over teeth and gums with in situ orthodontic bands and ozone introduced for up to 2 minutes.
smiles,measurement,value
O=[O+][O-] [ozone],examination of teeth for white spots after ozone treatment,beneficial results
